For this experiment, the target named is Signal transducer and activator of transcription 3 (Homo sapiens, UniProt P40763). The experiment can be described thus: Inhibition of STAT3 in human Hep3B cells assessed as inhibition of IL-6 stimulated STAT3 expression by luciferase reporter assay. (Reporter assays use an easily measured gene product as a stand-in for the process of interest.)
Sequence of Signal transducer and activator of transcription 3 (P40763 whole entry): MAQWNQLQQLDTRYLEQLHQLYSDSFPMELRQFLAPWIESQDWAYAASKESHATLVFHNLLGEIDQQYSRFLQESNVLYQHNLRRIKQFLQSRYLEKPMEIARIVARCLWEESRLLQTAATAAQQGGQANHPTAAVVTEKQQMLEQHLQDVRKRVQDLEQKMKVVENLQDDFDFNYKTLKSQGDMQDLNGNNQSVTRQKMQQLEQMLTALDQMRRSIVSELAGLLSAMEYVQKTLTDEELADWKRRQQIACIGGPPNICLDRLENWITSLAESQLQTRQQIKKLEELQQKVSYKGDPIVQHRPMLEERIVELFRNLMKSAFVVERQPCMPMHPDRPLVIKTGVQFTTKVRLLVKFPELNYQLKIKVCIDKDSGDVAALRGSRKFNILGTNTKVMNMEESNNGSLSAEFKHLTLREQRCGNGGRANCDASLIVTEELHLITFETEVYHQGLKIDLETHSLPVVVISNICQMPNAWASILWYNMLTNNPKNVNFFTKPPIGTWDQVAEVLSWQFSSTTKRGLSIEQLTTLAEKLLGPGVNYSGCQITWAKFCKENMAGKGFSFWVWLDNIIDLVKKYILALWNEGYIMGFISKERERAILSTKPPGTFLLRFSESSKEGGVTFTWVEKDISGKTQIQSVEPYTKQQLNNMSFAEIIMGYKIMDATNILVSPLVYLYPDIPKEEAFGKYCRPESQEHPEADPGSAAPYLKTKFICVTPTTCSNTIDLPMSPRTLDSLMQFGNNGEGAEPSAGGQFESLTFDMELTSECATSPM

By IC50 is commonly meant the midpoint of a concentration-inhibition curve. Regarding `O=[N+]([O-])c1ccc2c(c1)S(=O)(=O)C=C2`, the 50% inhibitory concentration (IC50) was 0.67 µM.
Consider `COc1ccc(CC[C@@H](O)C[C@H](O)CCc2ccc(OC)c(OC)c2)cc1OC`, for which the IC50 is 50 µM.
Regarding `COc1ccc(CC[C@H](O)C[C@@H](O)/C=C/c2cc(OC)c(OC)c(OC)c2)cc1OC`, the IC50 worked out at 37.6 µM.
For the compound `COc1ccc(/C=C/[C@H](O)C[C@@H](O)CCc2ccc(OC)c(OC)c2)cc1OC`, the half-inhibitory concentration (IC50) is 19.9 µM.
As to `COc1ccc(/C=C/[C@@H](C[C@@H](O)CCc2ccc(OC)c(OC)c2)OC)cc1OC`, the IC50 worked out at 12.9 µM.
Regarding `COc1ccc(/C=C/C(C[C@H](O)CCc2ccc(OC)c(OC)c2)OC)cc1OC` (stereo partly drawn), the half-inhibitory concentration (IC50) came out at 11.1 µM.
The value for `COc1ccc(/C=C/C=C/C(=O)/C=C/c2ccc(O)cc2)cc1` was 4.1 µM; that for `COc1cc(/C=C/C(=O)CC(=O)CC(O)c2ccc(O)c(OC)c2)ccc1O` (stereo not drawn) was 21.5 µM.

Source of the values: BindingDB's records for PubMed 33422907 (Universita Paul Sabatier, 2021).
